Test results reported in patent US6451850B1, “Bio-chemical germanium complexes with high therapeutic efficiency and wide application spectrum” (priority 2001, dated 2002).
Where “and” joins values, the source holds several entries; their conditions need not be identical. Identical values can stand only once.

Experiments:
[1] = Antiinflammatory effect, formalin paw edema (method by Ju. Strel'nikov); assay type: in vivo; details: white mice, into the stomach, dose equimolecular to 20 mg/kg of indometacin, two hours before formalin
Description: Strel'nikov. […] Simultaneously antiinflammatory activity of indometacin was studied for comparison.

[2] = system: virus of herpes simplex (VHS) of the 2-nd antigenic type; assay: Experimental herpes genitalis of male guinea pigs, treatment with Virolex or its OGC complex; assay type: in vivo; details: for Duration of the Disease: treatment begun 48 hours after infecting
Description: VIRUSES. The virus of herpes simplex (VHS) of the 2-nd antigenic type was implied in this work. Clinical symptoms of experimental herpes genitalis were registered daily before carrying out of treatment and were followed during the course of the disease.
The following parameters were used as criteria of infectious process danger: square and specific damage rate—presence of an edema, hyperemia, orchitis. Maximum distinction of each symptom made up 4 points. The present symptoms allow to buildup a scale and to express the course of the disease for each group under investigation from beginning of appearance of the first symptoms of the disease up to full disappearance of these. In this case index of therapeutic effect (ITE) is expressed with the following formula: [formula]
Treatment was began 48 hours after infecting when symptoms of the disease were distinct enough.
The first group included animals infected with VHS-2 and not subjected to treatment with any medicament.
The second group included animals infected with VHS-2 and subjected to treatment with 5 mg of Virolex once a day.
The third group included animals infected with VHS-2 and subjected to treatment with 5 mg of Virolex complex with OGC once a day.

[3] = guinea pigs infected with VHS-2, 5 mg once a day

Structure (SMILES) | reduction of the edema compared to the control group [1] | convalescent earlier than in the second group (Virolex) ([2]; 5 mg once a day) | day of convalescence after infecting ([2]; 5 mg once a day) | Duration of the Disease [2, 3] | toxic effect on infected animals compared to pure Virolex ([2]; infected guinea pigs) | Total Index of Symptoms Distinction [2, 3] | Index of Therapeutic Effect (ITE) ([2]; guinea pigs infected with VHS-2, 5 mg once a day, versus control group)
COc1ccc2c(c1)c(CC(=O)O)c(C)n2C(=O)c1ccc(Cl)cc1 [Indometacin] | 33.4% |  |  |  |  |  | 
Nc1nc2c(ncn2COCCO)c(=O)[nH]1.[OH][Ge]12[O]CCN(CC[O]1)CC[O]2 [Virolex OGC (R = OH), complex of 1-hydroxy-1-germa-2,8,9-trioxy-5-azatricyclo[3.3.3.0^1,5]undecane with Virolex] |  | 4.9 days | sixth | 6,2 ± 1,8 Days | decreased its toxic effect |  | 
Nc1nc2c(ncn2COCCO)c(=O)[nH]1 [Virolex, reference compound] |  |  |  | 11,1 ± 2,01 Days |  | 21 Points and 31,0 Points | 58%
